Results from US11505530B2, “1,8-naphthalimide derivative, preparation method therefor and use thereof” (SOOCHOW UNIVERSITY, priority 2018, dated 2022).

Experiments:
Format in all cases: physicochemical
[1] = UV-Vis absorption response of BNGT to pH; details: for maximum absorption wavelength: BNGT 10 μM
Method: Preparing a 1.0×10^−3 mol/L BNGT stock solution with acetonitrile as a solvent, and transferring 100 μL of the BNGT stock solution respectively into three series of 10 mL volumetric flasks; adding 7 mL of deionized water to the first series of volumetric flasks, adding 2 mL of deionized water and 5 ml of acetonitrile to the second series of volumetric flasks, and adding 1 mL of deionized water and 8 ml of acetonitrile to the third series of volumetric flasks; then titrating to the desired pH value respectively with 0.1 M NaOH and 0.1 M HCl aqueous solutions, and finally making up to volume with deionized water to obtain an acetonitrile/water solution of BNGT with different pHs in three solvent systems, the volume ratios of acetonitrile/water in the three solvent systems being 1/99, 1/1 and 8/2, respectively.
Therefore, in the three solvents (acetonitrile/water in a volume ratio of 1/99, 1/1 and 8/2), BNGT could be used as a pH colorimetric switch by means of three ways (a maximum absorption wavelength, absorbance and color).

[2] = Speed of response of BNGT to pH; details: three solvents
Excerpt: To investigate the speed of response of BNGT to pH, adding 1 M NaOH aqueous solution to an acetonitrile/water (in a volume ratio of 1/99 (a), 1/1 (b) and 8/2 (c)) solution of BNGT at pH 5.8 to adjust the pH to 6.0; measuring the UV-Vis absorption spectrum of the solution before and after the adjustment, and plotting the maximum absorption wavelength and color over time, with the results as shown in FIG. 8; solvent: acetonitrile/water, in a volume ratio of 1/99 (a), 1/1 (b) and 8/2 (c); concentration: BNGT 10 μM.
The absorbance was plotted against time and the results were shown in FIG. 9; solvent: acetonitrile/water, in a volume ratio of 1/99 (a), 1/1 (b) and 8/2 (c); concentration: BNGT 10 μM; absorption wavelength: 527 nm, 535 nm and 537 nm.

[3] = Effect of coexisting metal ions on BNGT as pH colorimetric switch; details: pH 5.8 and pH 6.0, metal ions 100 μM
Method: In order to understand the interference of common metal ions on BNGT as a pH colorimetric switch, Fe^2+, Fe^3+, Cu^2+, K^+, Na^+, Mg^2+, Ag^+, Zn^2+, Cr^3+, Cd^2+, […], Ni^2+, Mn^2+, Pb^2+, Hg^2+ and Ca^2+ were added to the acetonitrile/water (in a volume ratio of 1/99 (a), 1/1 (b) and 8/2 (c)) solution, and the UV-Vis absorption spectra of the solution before and after the addition of these metal ions were obtained. […]
Second, the effect of coexisting metal ions on the absorbance of the solution at 527 nm, 535 nm and 537 nm was investigated, with the results as shown in FIG. 11; solvent: acetonitrile/water, in a volume ratio of 1/99 (a), 1/1 (b) and 8/2 (c); concentration: BNGT 10 μM, metal ions 100 μM; 1: none, 2: Ca^2+, 3: Mg^2+, 4: Ag^+, 5: Pb^2+, 6: Cu^2+, 7: Mn^2+, 8: Co^2+, 9: Cd^2+, 10: Ni^2+, 11: K^+, 12: Na^+, 13: Fe^3+, 14: Zn^2+, 15: Cr^2+, 16: Hg^2+, 17: Fe^2+; absorption wavelength: 527 nm, 535 nm and 537 nm. […] Therefore, the aforementioned metal ions had little effect on the response of BNGT to pH in terms of enhanced absorbance.

[4] = Reversibility of BNGT as pH colorimetric switch; details: pH alternating between 5.8 and 6.0
Excerpt: 1 M HCl and 1 M NaOH were used to make the pH value of the acetonitrile/water (in a volume ratio of 1/99 (a), 1/1 (b) and 8/2 (c)) solution of BNGT alternately change between 5.8 and 6.0, so as to determine the UV-Vis absorption spectrum of the solution.
First, the reversibility of response of the maximum absorption wavelength and color of the solution to pH was investigated, with the results as shown in FIG. 12; solvent: acetonitrile/water, in a volume ratio of 1/99 (a), 1/1 (b) and 8/2 (c); concentration: BNGT 10 μM.
Second, the reversibility of response of the absorbance of BNGT to pH at 527 nm, 535 nm and 537 nm was investigated, with the results as shown in FIG. 13; solvent: acetonitrile/water, in a volume ratio of 1/99 (a), 1/1 (b) and 8/2 (c); concentration: BNGT 10 μM; the maximum absorption wavelengths corresponding to the absorbance of the three solutions were 527 nm, 535 nm and 537 nm, respectively. It can be seen from the figure that the pH value alternated between 5.8 and 6.0, and the absorbance of the acetonitrile/water (in a volume ratio of 1/99 (a), 1/1 (b) and 8/2 (c)) solution of BNGT also changed circularly from small to large at 527 nm, 535 nm and 537 nm, respectively.

[5] = pH 5.8 to 6.0, acetonitrile/water 1/1
[6] = pH 5.8 to 6.0, acetonitrile/water 1/99
[7] = pH 5.8 to 6.0, acetonitrile/water 8/2

Q: Which maximum absorption wavelength ([1]; pH 1.9 to 5.8, acetonitrile/water 1/1) does the source give for CCCCN1C(=O)c2cccc3c(NN=CC=NC(CO)(CO)CO)ccc(c23)C1=O [BNGT] here?
A: around 420 nm

Q: And the maximum absorption wavelength ([1]; pH 1.9 to 5.8, acetonitrile/water 1/99)?
A: around 432 nm

Q: What about the maximum absorption wavelength ([1]; pH 1.9 to 5.8, acetonitrile/water 8/2) of the same molecule?
A: around 422 nm

Q: And the “increase of absorbance at 535 nm” value [1, 5]?
A: about 20 times

Q: What about the “red shift of maximum absorption wavelength” value (from here on “red shift”) [1, 5] of the same molecule?
A: 115 nm

Q: And the “increase of absorbance at 527 nm” value [1, 6]?
A: about 6 times

Q: And the “red shift” value [1, 6]?
A: 95 nm

Q: And the “increase of absorbance at 537 nm” value [1, 7]?
A: about 28 times

Q: And the “red shift” value [1, 7]?
A: 115 nm

Q: What about the maximum absorption wavelength ([1]; pH 6.0 to 12.0, acetonitrile/water 1/1) of the same molecule?
A: around 535 nm

Q: And the maximum absorption wavelength ([1]; pH 6.0 to 12.0, acetonitrile/water 1/99)?
A: about 527 nm

Q: What about the maximum absorption wavelength ([1]; pH 6.0 to 12.0, acetonitrile/water 8/2) of the same molecule?
A: around 537 nm

Q: What about the “stability of absorbance for the next 30 min” value ([2]; after pH adjusted to 6.0) of the same molecule?
A: remained basically stable

Q: What about the “time for absorbance to reach the maximum” value ([2]; pH 5.8 adjusted to 6.0 with NaOH, 527 nm, 535 nm and 537 nm) of the same molecule?
A: about 2 min

Q: And the color change ([2]; pH changed from 5.8 to 6.0)?
A: colorless to red

Q: What about the “effect of coexisting metal ions on absorbance” value ([3]; 527 nm, 535 nm and 537 nm) of the same molecule?
A: did not change much

Q: And the “effect of coexisting metal ions on maximum absorption wavelength and color” value ([3]; BNGT 10 μM, three solvents)?
A: almost unchanged

Q: And the “reversibility of response of absorbance to pH” value ([4]; 527 nm, 535 nm and 537 nm)?
A: very good reversibility

Q: What about the “reversibility of response of maximum absorption wavelength and color to pH” value ([4]; three solvents) of the same molecule?
A: good reversibility
